# Laboratory results reported in PMC12416277, “Phytochemical alkaloids orchestrate immunometabolism against viral infections” (National Science Review, 2025).
# pEC50: −log10 of the molar value.
# Assays:
# H1N1 [1] = test: H1N1 NP protein in A549 cells (confocal microscopy, immunoblotting); format: cell-based, influenza virus A (H1N1)
# Experimental: Cells were lysed in lysis buffer and the protein concentrations were determined using the BCA Protein Assay Kit. Subsequently, the protein samples were separated by SDS-PAGE electrophoresis and transferred to nitrocellulose (NC) membranes, and blocked in 5% skim milk for 1 h at room temperature. Following an overnight incubation at 4°C with specific primary antibodies, the membranes were exposed to the appropriate HPR-conjugated antibodies and visualized using enhanced chemiluminescence.
# Cells were fixed with 4% PFA for 20 min, permeabilized with 0.2% Triton X-100 for 20 min, and blocked in 5% BAS for 1 h. After incubating with primary antibodies at 4℃ overnight, fluorescent secondary antibodies (Alexa-488, Alexa-594, Alexa-647) were added at RT for 1 h. Confocal microscopy analyses were carried out using Olympus FV3000 confocal microscope, and Leica TCS SP8 confocal microscope. […] Cells were then analyzed for Filipin staining signals by microscopy in the DAPI channel. […] Cells were then analyzed for signals by microscopy in the AF647 channel.
# Figure S2. […] P values were calculated using one-way ANOVA.
# H1N1 [2] = test: Dose-response of infectivity, H1N1 in A549 cells (viral mRNA by qRT-PCR); format: cell-based; details: Influenza A virus; A549 cells, H1N1; read-out: EC50
# H1N1 [3] = test: Antiviral effect in normal/serum-free medium during H1N1 infection of A549 cells; format: cell-based, influenza virus A (H1N1); details: serum-free conditions
# H1N1 [4] = test: Viral attachment, entry and post-entry assay, H1N1 in A549 cells; format: cell-based, influenza virus A (H1N1)
# VSV = format: cell-based, vesicular stomatitis virus (VSV); details: Sting-/- BMDM cells vs WT
# [5] = tested on: STING-dependent antiviral immune pathway; format: cell-based
# [6] = tested on: NPC1 and STING in lysosomal microdomains; test: Lysosome immunoprecipitation with density gradient ultracentrifugation (LysoIP-DEG) in HepG2 cells; format: cell-based
# Experimental: Figure 5. The dual functions of Tet to resist viral entry and activate antiviral immunity through the NPC1/STING axis. (a, b) Confocal analysis of Bio-Tet with CD63 (a) or NPC1 (b) in A549 cells, scale bar: 10 μm. (c) Binding affinity analysis of NPC1 with itraconazole, U18666A, or Tet was determined by SPR. (d, e) CETSA (d) and DARTS (e) analysis of NPC1 with Tet in HepG2 cells. (f) Streptavidin-covered beads with biotin, Bio-Tet, Bio-Tet + Tet were incubated with cell lysates. As indicated, the levels of NPC1 protein in bound proteins (IP) and total proteins (Input) were determined using immunoblotting. (g) Viral mRNA expression in siNPC1-transfected cells treated with Tet. (h) Viral mRNA expression in sgRNA-EV, sgRNA Npc1, and sgRNA Npc1 cells transfected with Flag-NPC1 treated with Tet. (i) Ifit1 and Ifit2 mRNA expression in sgRNA-EV, sgRNA Npc1, and sgRNA Npc1 cells transfected with Flag-NPC1 stimulated with DMXAA and Tet. (j) Schematic of LysoIP-DEG. (k) Immunoblotting analysis of the indicated proteins in LysoIP-DEG in Tet-treated HepG2 cells. (l) Schematic model of NPC1/STING axis-mediated viral inhibition by Tet. […] P values were calculated using one-way ANOVA (g, h, i). […]
# The LysoIP-DEG was performed as previously described with minor modifications. […] The collected samples were dissolved in 50 µL 2 × SDS loading buffer and then assessed through western blotting analysis.
# [7] = tested on: cholesterol metabolism genes; format: cell-based, human
# EMCV = format: cell-based, encephalomyocarditis virus (EMCV)
# A549 cells = format: cell-based
smiles,measurement,setting,value
"COc1ccc2cc1Oc1ccc(cc1)C[C@H]1c3cc(c(OC)cc3CCN1C)Oc1c(OC)c(OC)cc3c1[C@H](C2)N(C)CC3 [Tet, tetrandrine]",H1N1 NP protein expression,H1N1 [1],effectively reduced
same,cytopathic effects,H1N1 [1],without causing cytopathic effects
same,pEC50,H1N1 [2],6.48
same,antiviral effect on H1N1 entry,H1N1 [3],diminished
same,H1N1 infection during entry or post-entry stages,H1N1 [4],inhibited
same,H1N1 attachment,H1N1 [4]; 4°C,without affecting virus attachment
same,antiviral effect against VSV,VSV,markedly reduced
same,IFNB1 and ISGs gene expression,[5],significantly increased
same,NPC1 and STING expression in lysosomal microdomains,[6],enhanced NPC1 and STING expression in lysosomal microdomains after 6 hours
same,"expression of genes involved in cholesterol synthesis (SREBF2, HMGCR, SQLE, SREBP1C, DHCR24, DHCR7, FASN) and absorption (LDLR)",[7],increased expression
same,"expression of genes related to cholesterol transport (ABCA1, ABCG1), oxidation (CYP27A1, CYP46A1) or esterification (ACAT1, ACAT2)",[7],did not affect the expression
same,EMCV attachment,EMCV,without affecting virus attachment
same,EMCV infection during entry or post-entry stages,EMCV,inhibited
same,intracellular cholesterol levels,A549 cells,higher intracellular cholesterol levels
